# Results taken from US20230293629A1, “METHODS FOR ATTENUATING RELEASE OF INFLAMMATORY MEDIATORS AND PEPTIDES USEFUL THEREIN” (BIOMARCK PHARMACEUTICALS LTD., priority 2006, published 2023).
# Where a SMILES comes first, the peptide text is derived from it. Where no end group is shown, it is not given here. The star is where a group is joined. Myristoyl = CCCCCCCCCCCCCC(=O)*
# Test system: LPS-induced lung inflammation
# Experiment: In vivo LPS-induced lung inflammation, BAL analysis
# Parameters: species or system mice
# Conditions: for Hb / MPO / LDH / Total Protein: BAL fluid; for Inhibition of neutrophil migration: relative to PBS/LPS treatment
# Protocol: This example was performed essentially according to methods described by Cox, G, Crossley, J., and Xing, Z.; Macrophage engulfment of apoptotic neutrophils contributes to the resolution of acute pulmonary inflammation in vivo; Am. J. Respir. Cell Mol. Biol. 12:232-237, 1995; Hirano S., Quantitative time-course profiles of bronchoalveolar lavage cells following intratracheal instillation of lipopolysaccharide in mice, Ind. Health 35:353-358, 1997; and Ulich T R, Watson L R, Yin S M, Guo K Z, Wang P, Thang H, and del Castillo, J. Am. J. Pathol. 138:1485-1496, 1991.
# Thus, six to seven week old CD1 female mice weighing 15-20 grams were obtained from Charles River laboratories and housed in groups of 5 mice per cage. The animals received standard rodent diet and filtered water ad libitum. The animals were housed under NIH prescribed guidelines at standard temperature (64° to 79° F.) and relative humidity of 30 to 70%.
# Five treatment groups of mice, with 5 animals in each group, were treated either with PBS followed by PBS, with PBS followed by LPS, with (myristoylated) MANS peptide followed by LPS, with acetylated peptide of SEQ ID NO: 1, followed by LPS, or with acetylated peptide of SEQ ID NO: 106, followed by LPS.
# Intranasal peptide instillation pre-treatment: A peptide of the invention to be evaluated in vivo for its ability to inhibit or reduce LPS-induced lung inflammation was dissolved in PBS at a concentration of 1 mM. Animals, anesthetized with 0.8% isofluorane by inhalation, were pretreated with 2×10 μL intranasal bolus of the peptide solution into one nostril 30 minutes prior to subsequent instillation with LPS.
# Intranasal LPS instillation: Lipopolysaccharide (LPS) Endotoxin (Escherichia coli Serotype 011:B4 derived endotoxin; Sigma, St Louis, MO; see Sigma product information sheet L4130 titled Lipopolysaccharides from Escherichia coli 011:B4) was dissolved into phosphate buffered saline (PBS) at 2,500 μg/mL. To expose animals to endotoxin, a 10 μL intranasal bolus of 2,500 μg/ml endotoxin solution was administered to animals which had been anesthetized with 0.8% isofluorane by inhalation. The 10 μL bolus was applied into one nostril. Animals were monitored for labored breathing, lethargy, and decreased water/food intake following the endotoxin instillations.
# Bronchoalveolar Lavage (BAL): Six hours after the last instillation, the animals were anesthetized (90 mg/kg Nembutal) and sacrificed by exsanguination. The lung was serially lavaged 2 times with 1.0 mL aliquots of PBS. The collected BAL fluid was centrifuged to remove the cells for subsequent counting and differential analysis. Recovered lavage fluid was used for analysis of total protein, myeloperoxidase (MPO), LDH, and hemoglobin.
# Analysis: Aliquots of the BAL fluid were used immediately to assay for the levels of LDH, total protein, or hemoglobin using the COBAS Fara analyzer (COBAS FARA II automated analyzer; Roche Diagnostic Systems Inc., Montclair, NJ). An aliquot of BAL fluid was frozen at −80° C. for subsequent quantitation of myeloperoxidase (MPO) with a mouse-specific ELISA assay (Cell Sciences, Inc., Canton, Mass). BAL data were analyzed by standard techniques to examine differences between the control and treatment groups.
molecule,measurement,setting,value
CCCCCCCCCCCCCC(=O)NCC(=O)N[C@@H](C)C(=O)N[C@@H](CCC(N)=O)C(=O)N[C@@H](Cc1ccccc1)C(=O)N[C@@H](CO)C(=O)N[C@@H](CCCCN)C(=O)N[C@H](C(=O)N[C@@H](C)C(=O)N[C@@H](C)C(=O)N[C@@H](CCCCN)C(=O)NCC(=O)N[C@@H](CCC(=O)O)C(=O)N[C@@H](C)C(=O)N[C@@H](C)C(=O)N[C@@H](C)C(=O)N[C@@H](CCC(=O)O)C(=O)N[C@@H](CCCNC(=N)N)C(=O)N1CCC[C@H]1C(=O)NCC(=O)N[C@@H](CCC(=O)O)C(=O)N[C@@H](C)C(=O)N[C@@H](C)C(=O)N[C@H](C(=O)N[C@@H](C)C(=O)O)C(C)C)[C@@H](C)O [MANS] (Myristoyl-GAQFSKTAAKGEAAAERPGEAAVA-OH; C-terminus assumed),Total cells counted,"BAL 6 h after intranasal LPS, 2×10 μL 1 mM peptide intranasal 30 min before LPS, PBS/LPS 264,200, PBS/PBS 157,020","208,457"
same,Hb,"Table 4 experiment, PBS/LPS 0.19, PBS/PBS 0.00",0.05 g/dL
same,MPO,"Table 4 experiment, PBS/LPS 28.98, PBS/PBS 3.28",9.49 ng/mL
same,LDH,"Table 4 experiment, PBS/LPS 60.40, PBS/PBS 68.20",68.57 units/L
same,Total Protein,"Table 4 experiment, PBS/LPS 272.40, PBS/PBS 125.60",175.00 µg/mL
same,% Neutrophils of total cells,"Table 4 experiment, PBS/LPS 41.7, PBS/PBS 18.7",30.9%
same,Total neutrophils counted,"Table 4 experiment, PBS/LPS 110,061, PBS/PBS 29317","64,481"
same,Inhibition of neutrophil migration,,41.4%
Ac-GAQFSKTAAK [Ac-GAQFSKTAAK],Hb,"Table 6 experiment, PBS/LPS 0.00, PBS/PBS 0.00",0.00 g/dL
same,MPO,"Table 6 experiment, PBS/LPS 7.19, PBS/PBS 4.88",1.50 ng/mL
same,LDH,"Table 6 experiment, PBS/LPS 78.20, PBS/PBS 61.80",106.86 units/L
same,Total Protein,"Table 6 experiment, PBS/LPS 116.4, PBS/PBS 113.8",131.0 µg/mL
same,% Neutrophils of total counts,"Table 6 experiment, PBS/LPS 24.4, PBS/PBS 21.3",3.0%
same,Total Neutrophil counts,"Table 6 experiment, PBS/LPS 80,077, PBS/PBS 66,521","9,170"
same,Total Cell Counts,"Table 6 experiment, PBS/LPS 327,680, PBS/PBS 312,620","305,688"
same,Inhibition of neutrophil migration,,88.5%
Ac-GAQFSKTAAKGEAAAERPGEAAVA,Hb,"Table 5 experiment, PBS/LPS 0.01, PBS/PBS 0.00",0.01 g/dL
same,MPO,"Table 5 experiment, PBS/LPS 37.90, PBS/PBS 5.45",30.79 ng/mL
same,LDH,"Table 5 experiment, PBS/LPS 89.9, PBS/PBS 84.0",74.5 units/L
same,Total Protein,"Table 5 experiment, PBS/LPS 153.4, PBS/PBS 230.6",182.75 µg/mL
same,% Neutrophils of total counts,"Table 5 experiment, PBS/LPS 65.5, PBS/PBS 22.1",41.47%
same,Total Neutrophil counts,"Table 5 experiment, PBS/LPS 164,578, PBS/PBS 19,770","105,499"
same,Total Cell Counts,"Table 5 experiment, PBS/LPS 251,360, PBS/PBS 89,440","254,400"
same,Inhibition of neutrophil migration,,35.9%
